For one assay, the system named is Primary striatal cells. The experiment in a line: Striatum-derived neurosphere proliferation in response to proliferative and regulatory factors (Example 43, Paradigm 1). Type of assay: cell-based, mouse. The procedure: Paradigm 1: Primary striatal cells prepared as outlined in Example 1 were suspended in Complete Medium, without growth factors, plated in 96 well plates (Nunclon) and incubated as described in Example 4. Following a one hour incubation period, a specific proliferative factor, or a combination of proliferative factors including EGF, or bFGF (recombinant human bFGF: R & D Systems), or a combination of EGF and bFGF, or EGF plus FGF plus heparan sulfate (Sigma), or bFGF plus heparan sulfate made up in Complete Medium at a concentration of 20 ng/ml for each of the growth factors and 2 μg/ml for heparan sulfate), was added to each well of the plate.
Retinoic acid (Sigma) was added at a concentration of 10^−6 M. 10 μl of one of these regulatory factor-containing solutions was added to each proliferative factor-containing well of the 96 well plates. Control wells, containing only proliferative factors, were also prepared. […]
IL-2, IL-6, IL-8, MIP-1∂, MIP-1β, MIP-2, TNFα and EGF additions were repeated every second day, CNTF which was added each day and retinoic acid, NGF and PDGF were added only once, at the beginning of the experiment. The cells were incubated for a period of 10-12 days. The number of neurospheres in each well was counted and the resulting counts tabulated using Cricket Graph III. Other relevant information regarding sphere size and shape were also noted.

Assay [1] relates to constitutively proliferating subependymal cells of the lateral ventricles. The experiment in a line: In vivo proliferation of retrovirus β-gal labelled cells of the lateral ventricle (Example 27). Details: species or system mouse. The procedure: A replication incompetent retrovirus containing the β-galactosidase gene [as described in Walsh and Cepko, Science 241:1342, (1988)] was injected into the forebrain lateral ventricles of CD1 adult male mice (25-30 g from Charles River). The injected retrovirus was harvested from the BAG cell line (ATCC CRL-9560) according to the method of Walsh and Cepko (supra). Mice were anesthetized using 65 mg/kg, i.p. sodium pentobarbital. Unilateral stereotactic injections of 0.2-1.0 μl of retrovirus were injected into the lateral ventricle using a 1 μl Hamilton syringe. The coordinates for injection were AP +4.2 mm anterior to lambda, L ±0.7 mm, and DV −2.3 mm below dura, with the mouth bar at −2 mm below the interaural line.
On the same day as, one day, or six days following the retrovirus injection, an infusion cannulae attached to a 0.5 μl/hour ALZET osmotic mini-pumps filled with 3.3-330 μg/ml of EGF were surgically implanted into the lateral ventricles at the identical stereotactic coordinates as stated above. The infusion cannula kits were obtained from ALZA. The infusion cannulae were cut to 2.7 mm below the pedestal. The pumps were secured to the mouse skull by use of acrylic cement and a skull screw contralateral and caudal to the injection site. […]

The subject of assay [2] is BrdU positive cells in cervical spinal cord. Nature of the assay: In vivo infusion of growth factors into ventricles, BrdU labelling of cervical spinal cord (Example 30). Details: species or system mouse. The following applies: 25 μg/mL, osmotic mini-pump, six days. How it is done:
Adult male CD1 albino mice (30-35 g) from Charles River were anaesthetized with sodium pentobarbital ([…]) and placed in a stereotaxic apparatus. The dorsal aspect of the skull was exposed with a longitudinal incision. Cannulas were inserted into the fourth ventricle (stereotaxic coordinates A/P −7.0, L ±0.3 D/V −5.8), cerebral aqueduct (A/P −4.8 L ±D/V −2.6), or central canal (DIV −1.5). The cannulae were attached with sterile tubing to subcutaneous positioned ALZET osmotic mini-pumps containing 25 μg/mL EGF (Becton 40001) and/or 25 μg/mL FGF-2 (R&D Systems 233-FB). Pumps containing sterile saline plus 0.1% mouse albumin (Sigma A3134) were used as controls. The incisions were closed with dental cement.
Six days following surgery mice were injected with 0.15 mL BrdU (Sigma B5002); 18 mg/mL in 0.007% NaOH/0.1M PBS) every 2 hours for 8 hours. They were killed 0.5 hours after the last injection with an anaesthetic overdose, and transcardially perfused with 10 mL of ice-cold sterile saline followed by 10 mL of ice-cold Bouin's fixative (5% glacial acetic acid, 9% formaldehyde, 70% picric acid). The cervical spinal cord region was dissected out and post-fixed overnight at 4° C. in Bouin's post-fixative solution (9% formaldehyde, 70% picric acid). […] The number of BrdU positive cells was counted per cervical spinal cord section. […]

The results in this text go back to patent US6497872B1, “Neural transplantation using proliferated multipotent neural stem cells and their progeny” (NeuroSpheres Holdings Ltd., priority 1991, dated 2002).

As to “bFGF: basic fibroblast growth factor, recombinant human (R & D Systems)”, in the assay with Primary striatal cells (bFGF alone), the “size of neurospheres relative to those generated in the presence of EGF” value was “about 20%”. In addition, in the assay on Primary striatal cells (proliferative factor alone, 20 ng/ml), the “neurospheres generated per well” value is “approximately 70 neurospheres per well”. Also, in assay [1] (33 μg/ml infusion), the “number of β-gal labelled cells” value is on record as “increase”. Also, in assay [1] (6 days infusion), the “migration of β-gal labelled cells” value is “not accompanied by any additional migration”. Also, the “number of BrdU labelled cells per cervical spinal cord section compared to control” value in assay [2] is given as “significant increase”.
